{"source": "patent US20120003262A1", "about": "“ANTICANCER HEALTH FOOD CONTAINING PHELLINUS LINTEUS AND VEGETABLE WORMS” (HAN KOOK SHIN YAK CO., LTD., priority 2008, published 2012)", "test_system": "lung cancer cell (Lewis Lung Carcinoma: LLC)", "test": "Anticancer animal test: Lewis Lung Carcinoma transplanted to mice, tumor volume and weight after 14 days of administration", "type": "in vivo, mouse", "conditions": "LLC-transplanted BDF1 male mice, extracts 200 mg/kg orally daily, Taxol 50 mg/kg intraperitoneally daily, for 14 days", "protocol": "In order to test an anticancer effect of the mixture extract of Phellinus linteus and vegetable worms, from Examples 1 to 7, and Comparative 1, an animal test was carried out. A mouse used for the experiment was bought from Jung Ang Lab. Animal Inc. (black, Japan, BDF1 male, weight: 20±2 g). The breeding temperature was 22±2° C., and solid feed stuff (Samyang feed Co.) and water were sufficiently supplied. […]\nA solvent for the extraction was an extra pure reagent (E.P.). For the test sample, a sterilized saline solution manufactured by Daihan Pharm Co. Ltd. was used. For the culture of a cancer cell, an RPMI 1640 medium (WelGENE Inc.) was used, and Trypsin-EDTA was manufactured by GIBCO. Besides, a test tube required for cell culture, a culture flask, and a filter for obtaining a cancer cell were manufactured by Falcon. Devices used for cancer transplantation were disinfected at 120° C. for 30 min, and a cancer volume was measured by a Digital Caliper.\nA lung cancer cell (Lewis Lung Carcinoma: LLC) used for the experiment was distributed from the Korea Research Institute of Bioscience and Biotechnology. The lung cancer cell (Lewis Lung Carcinoma: LLC) was cultured by RPMI 1640 medium added with 10% FBS in a 37° C. incubator, and for the detachment from an attachment surface, Trypsin-EDTA was used. When the cells are filled up in a 200 ml culture flask, they were transplanted to two animals. After the cells were grown in vivo, they were used for an animal test.\nIn an anticancer animal test, a tumor grown up to a size of about 15×15×15 mm^3 was separated, and a cancer cell was separated from other cells by using a filer (Falcon). […] From the day after the cancer transplantation, for 14 days, powder obtained by mixing Phellinus linteus and vegetable worms at a weight ratio of 1:1 (Example 1), 1:3(Example 2), 3:1(Example 3), 1:5(Example 4), 5:1(Example 5), 1:10(Example 6), 10:1(Example 7) was orally administered daily to a black mouse (Japan) in an amount of 200 mg/kg. Meanwhile, as a positive control group, Taxol was intraperitoneally injected daily in an amount of 50 mg/kg once a day for 14 days. After 14 days, the administration of the extract powder of Phellinus linteus and vegetable worms was stopped, and a Digital Caliper was used to measure the results. […] After the measurement of a tumor volume, a tumor lump was obtained through an operation and its weight was measured. An inhibition ratio of tumor weight (IRTW) was calculated by (TW of control−TW of test)×100/TW of control.\nAll data were indicated by mean±S.D., and the analysis was carried out by Anova test. Also, when p values are 0.05 or less, they were determined to have significance."}
{"smiles": "CC(=O)O[C@H]1C(=O)[C@@]2(C)[C@H]([C@H](OC(=O)c3ccccc3)[C@]3(O)C[C@H](OC(=O)[C@H](O)[C@@H](NC(=O)c4ccccc4)c4ccccc4)C(C)=C1C3(C)C)[C@]1(OC(C)=O)CO[C@@H]1C[C@@H]2O", "note": "[Taxol]", "values": [{"measurement": "Tumor volume inhibiting ratio", "setting": "(TV of control−TV of test)×100/TV of control", "result": 67, "unit": "%"}, {"measurement": "Tumor weight inhibiting ratio", "setting": "(TW of control−TW of test)×100/TW of control", "result": 64, "unit": "%"}, {"measurement": "Tumor size", "setting": "mean±S.D., 5 mice", "result": "649 ± 182", "unit": "mm^3"}, {"measurement": "Tumor weight", "setting": "mean±S.D., 5 mice", "result": "0.61 ± 0.3", "unit": "g"}]}
